Measurements as given in patent publication US8486996B2, “Aroylfuranes and aroylthiophenes” (Basilea Pharmaceutica AG, priority 2006, dated 2013).
Read-outs that look alike come from different tables or passages of the source.

Experiments:
Format in all cases: cell-based
[1] = Hoechst 33342 nuclear staining (48 h read-out)
Method in brief: (§1)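 Adherent cells pre-spread 24 h before dosing, suspension cells dosed at seeding; compounds at 0.001 μM-10 μM final, 48 h at culture conditions. Hoechst 33342 (2-5 μg/ml) added for 30 min, then fluorescence microscopy scoring of apoptotic nuclear fraction and apoptosis-specific morphology, reported as scores A-D.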

tumor cells [2] = test: Hoechst 33342 nuclear staining (48 h read-out)
Method in brief: as §1

[3] = MTS proliferation assay (72 h read-out); details: MRC5 cells
Method in brief: (§2)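 Viability was read by MTS absorbance at 492 nm after 3 h with reagent. Before that, cells plated a day earlier at 1.5×10^3–10^4 per well had been incubated with test compound at final concentrations of 0.001–10 μM for 72 h; activity is given as category scores A–D.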

tumor cells [4] = test: MTS proliferation assay (72 h read-out)
Method in brief: as §2

[5] = Mitochondrial membrane potential, JC-1 (read-out 48 h); details: PBL, JC-1, 48 h
Method in brief: (§3)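 Tumor cells were treated with test compounds (adherent cells after 24 h of attachment, suspension cells immediately), medium holding up to 5% DMSO. After 48 h, JC-1 (2-5 μg/ml in added medium) was applied for 30 min. Fluorescence microscopy (FITC/TRITC filters) scored the fraction of cells with dissipated mitochondrial membrane potential as categories A-D.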

tumor cells [6] = test: as above; details: JC-1, 48 h
Method in brief: as §3

[7] = MRC5 cells, read-out: Hoechst 33342 nuclear staining EC50, MRC5
[8] = PBL, read-out: Hoechst 33342 nuclear staining EC50, PBL
[9] = HeLa cells, read-out: Hoechst 33342 nuclear staining EC50, HeLa
[10] = Jily cells, read-out: Hoechst 33342 nuclear staining EC50, Jily
[11] = Jurkat cells, read-out: Hoechst 33342 nuclear staining EC50, Jurkat
[12] = HT1080 cells, read-out: MTS proliferation assay IC50, HT1080
[13] = HeLa cells, read-out: MTS proliferation assay IC50, HeLa
[14] = Jily cells, read-out: MTS proliferation assay IC50, Jily
[15] = HeLa cells, read-out: Mitochondrial membrane potential (read-out 48 h) HeLa
[16] = Jily cells, read-out: Mitochondrial membrane potential (read-out 48 h) Jily
[17] = Jurkat cells, read-out: Mitochondrial membrane potential (read-out 48 h) Jurkat
[18] = MCF7 cells, read-out: Mitochondrial membrane potential (read-out 48 h) MCF7
[19] = Jurkat cells, read-out: MTS proliferation assay IC50, Jurkat

Row | EC50 [1, 8] [nM] | EC50 (tumor cells [2]; [9]) [nM] | EC50 (tumor cells [2]; [10]) [nM] | EC50 (tumor cells [2]; [11]) [nM] | IC50 (tumor cells [4]; [12]) [nM] | IC50 (tumor cells [4]; [13]) [nM] | IC50 (tumor cells [4]; [14]) [nM] | EC50 [5] [nM] | EC50 (tumor cells [6]; [15]) [nM] | EC50 (tumor cells [6]; [16]) [nM] | EC50 (tumor cells [6]; [17]) [nM] | EC50 (tumor cells [6]; [18]) [nM] | IC50 (tumor cells [4]; [19]) [nM] | Structure (SMILES) | EC50 [1, 7] [nM] | IC50 [3] [nM]
1 | > 1000 | 100 to 1000 | 100 to 1000 | 100 to 1000 | 100 to 1000 | 100 to 1000 | 100 to 1000 | > 1000 | > 1000 | 100 to 1000 | 100 to 1000 | > 1000 | – | CCOc1ccc(F)cc1C(=O)c1cc2cc(OCCOC)ccc2o1 [Example 70] | 100 to 1000 | 100 to 1000
2 | > 1000 | > 1000 | > 1000 | > 1000 | > 1000 | > 1000 | > 1000 | > 1000 | > 1000 | > 1000 | > 1000 | > 1000 | – | CCOc1ccc(F)cc1C(=O)c1cc2cc(OCCN(C)C)ccc2o1 [Example 71] | > 1000 | > 1000
3 | > 1000 | 100 to 1000 | 100 to 1000 | 100 to 1000 | 100 to 1000 | 100 to 1000 | 100 to 1000 | > 1000 | 100 to 1000 | 100 to 1000 | 100 to 1000 | > 1000 | – | CCOc1ccc(F)cc1C(=O)c1cc2cc(Oc3ccccn3)ccc2o1 [Example 73] | 100 to 1000 | 100 to 1000
4 | > 1000 | > 1000 | > 1000 | > 1000 | > 1000 | > 1000 | > 1000 | > 1000 | > 1000 | > 1000 | > 1000 | > 1000 | – | CCNc1ncccc1C(=O)c1oc2ccc(Cl)cc2c1N [Example 76] | > 1000 | > 1000
5 | > 1000 | > 1000 | > 1000 | 100 to 1000 | 100 to 1000 | 100 to 1000 | 100 to 1000 | > 1000 | > 1000 | 100 to 1000 | 100 to 1000 | > 1000 | 100 to 1000 | Nc1c(C(=O)c2cccnc2N2CCCC2)oc2ccc(Cl)cc12 [Example 79] | > 1000 | > 1000
6 | > 1000 | 100 to 1000 | 100 to 1000 | 10 to 100 | 10 to 100 | 100 to 1000 | 10 to 100 | > 1000 | 100 to 1000 | 100 to 1000 | 10 to 100 | 100 to 1000 | 10 to 100 | CC1CN(c2ncccc2C(=O)c2oc3ccc(Cl)cc3c2N)CC(C)O1 (stereo not shown) [Example 83] | 100 to 1000 | 10 to 100
7 | > 1000 | > 1000 | > 1000 | > 1000 | > 1000 | > 1000 | > 1000 | > 1000 | > 1000 | > 1000 | > 1000 | > 1000 | > 1000 | Nc1c(C(=O)c2cccnc2N2CCCNCC2)oc2ccc(Cl)cc12 [Example 84] | > 1000 | > 1000
8 | > 1000 | > 1000 | > 1000 | > 1000 | > 1000 | > 1000 | 100 to 1000 | > 1000 | > 1000 | > 1000 | > 1000 | > 1000 | 100 to 1000 | Nc1c(C(=O)c2cccnc2N2CCC(O)CC2)oc2ccc(Cl)cc12 [Example 86] | > 1000 | > 1000
9 | > 1000 | 100 to 1000 | 100 to 1000 | 100 to 1000 | 100 to 1000 | 100 to 1000 | 10 to 100 | > 1000 | 100 to 1000 | 100 to 1000 | 100 to 1000 | 100 to 1000 | 10 to 100 | COc1ccc2oc(C(=O)c3cccnc3N3CCCCC3C)cc2c1 (stereo not shown) [Example 89] | 100 to 1000 | 100 to 1000
10 | > 1000 | > 1000 | > 1000 | > 1000 | > 1000 | > 1000 | > 1000 | > 1000 | > 1000 | > 1000 | > 1000 | > 1000 | > 1000 | COc1ccc2oc(C(=O)c3cccnc3-n3ccnc3)cc2c1 [Example 90] | > 1000 | > 1000
11 | > 1000 | 100 to 1000 | 100 to 1000 | 100 to 1000 | < 10 | 10 to 100 | < 10 | > 1000 | 10 to 100 | 10 to 100 | 10 to 100 | 10 to 100 | < 10 | COc1ccc2oc(C(=O)c3cccnc3N3CCCCC3)cc2c1 [Example 91] | 100 to 1000 | < 10

Second part, the compound before the results:

Row | Structure (SMILES) | EC50 [1, 8] [nM] | EC50 (tumor cells [2]; [9]) [nM] | EC50 (tumor cells [2]; [10]) [nM] | EC50 (tumor cells [2]; [11]) [nM] | IC50 (tumor cells [4]; [12]) [nM] | IC50 (tumor cells [4]; [13]) [nM] | IC50 (tumor cells [4]; [14]) [nM] | EC50 [5] [nM] | EC50 (tumor cells [6]; [15]) [nM] | EC50 (tumor cells [6]; [16]) [nM] | EC50 (tumor cells [6]; [17]) [nM] | EC50 (tumor cells [6]; [18]) [nM] | IC50 (tumor cells [4]; [19]) [nM] | EC50 [1, 7] [nM] | IC50 [3] [nM]
12 | CCOc1ccc(F)cc1C(=O)c1cc2cc(OCOC)ccc2o1 [Example 69] | > 1000 | 100 to 1000 | 100 to 1000 | 100 to 1000 | 100 to 1000 | 100 to 1000 | 100 to 1000 | > 1000 | > 1000 | 100 to 1000 | 100 to 1000 | > 1000 | – | > 1000 | 100 to 1000
13 | CCOc1ccc(F)cc1C(=O)c1cc2cc(OC(=O)N(C)C)ccc2o1 [Example 72] | > 1000 | > 1000 | 100 to 1000 | 100 to 1000 | 100 to 1000 | 100 to 1000 | 100 to 1000 | > 1000 | > 1000 | 100 to 1000 | 100 to 1000 | > 1000 | – | > 1000 | 100 to 1000
14 | CCOc1ccc(F)cc1C(=O)c1cc2cc(CN(CC)CC)ccc2o1 [Example 74] | > 1000 | > 1000 | > 1000 | > 1000 | > 1000 | > 1000 | > 1000 | > 1000 | > 1000 | > 1000 | > 1000 | > 1000 | – | > 1000 | > 1000
15 | CN(C)c1ncccc1C(=O)c1oc2ccc(Cl)cc2c1N [Example 77] | > 1000 | > 1000 | 100 to 1000 | 100 to 1000 | > 1000 | > 1000 | 100 to 1000 | > 1000 | > 1000 | 100 to 1000 | 100 to 1000 | > 1000 | – | > 1000 | > 1000
16 | CCN(CC)c1ncccc1C(=O)c1oc2ccc(Cl)cc2c1N [Example 81] | > 1000 | 100 to 1000 | 100 to 1000 | 100 to 1000 | 10 to 100 | 100 to 1000 | 100 to 1000 | > 1000 | > 1000 | 100 to 1000 | 10 to 100 | > 1000 | 10 to 100 | > 1000 | 100 to 1000
17 | CN1CCN(c2ncccc2C(=O)c2oc3ccc(Cl)cc3c2N)CC1 [Example 85] | > 1000 | > 1000 | 100 to 1000 | 100 to 1000 | > 1000 | > 1000 | 100 to 1000 | > 1000 | > 1000 | 100 to 1000 | 100 to 1000 | > 1000 | 100 to 1000 | > 1000 | > 1000
18 | COc1ccc2oc(C(=O)c3cccnc3N3CCCC(C)C3)cc2c1 (stereo not shown) [Example 87] | > 1000 | 100 to 1000 | 100 to 1000 | 100 to 1000 | 10 to 100 | 10 to 100 | 10 to 100 | > 1000 | 100 to 1000 | 100 to 1000 | 100 to 1000 | 100 to 1000 | < 10 | 100 to 1000 | 10 to 100
19 | COc1ccc2oc(C(=O)c3cccnc3N3CC=CCC3)cc2c1 [Example 88] | > 1000 | 100 to 1000 | 100 to 1000 | 100 to 1000 | < 10 | 10 to 100 | < 10 | > 1000 | 10 to 100 | 10 to 100 | 10 to 100 | 10 to 100 | < 10 | 100 to 1000 | < 10
